Assay results from the NIST ThermoML archive (doi:10.1021/je050050p).

Assay: xn = mol fraction of the nth substance listed
Details: Liquid, Vibrating tube method

CN(C)C=O [dimethylformamide] + O=C=O
Details | mass density [kg/m3]
323.07 K, 21005 kPa, x2 = 0.6235 | 955.83
323.07 K, 22029 kPa, x2 = 0.6235 | 957.78
323.07 K, 23012 kPa, x2 = 0.6235 | 959.63
323.07 K, 24020 kPa, x2 = 0.6235 | 961.47
323.07 K, 24979 kPa, x2 = 0.6235 | 963.24
323.08 K, 11047 kPa, x2 = 0.8091 | 888.99
323.08 K, 12004 kPa, x2 = 0.8091 | 893.47
323.08 K, 13042 kPa, x2 = 0.8091 | 898.2
323.08 K, 14006 kPa, x2 = 0.8091 | 902.33
323.08 K, 15005 kPa, x2 = 0.8091 | 906.31
323.08 K, 16016 kPa, x2 = 0.8091 | 910.13
323.08 K, 16989 kPa, x2 = 0.8091 | 913.66
323.08 K, 18023 kPa, x2 = 0.8091 | 917.28
323.08 K, 18997 kPa, x2 = 0.8091 | 920.57
323.08 K, 20018 kPa, x2 = 0.8091 | 923.89
323.08 K, 21002 kPa, x2 = 0.8091 | 927.01
323.08 K, 22041 kPa, x2 = 0.8091 | 930.23
323.08 K, 22980 kPa, x2 = 0.8091 | 933.13
323.08 K, 23989 kPa, x2 = 0.8091 | 936
323.08 K, 25049 kPa, x2 = 0.8091 | 939.12
323.09 K, 7005 kPa, x2 = 0.4268 | 942.62
323.09 K, 7062 kPa, x2 = 0.4461 | 942.94
323.09 K, 7958 kPa, x2 = 0.4461 | 944.11
323.09 K, 8007 kPa, x2 = 0.4268 | 943.86
323.09 K, 9005 kPa, x2 = 0.4268 | 944.97
323.09 K, 9022 kPa, x2 = 0.4461 | 945.39
323.09 K, 9996 kPa, x2 = 0.4268 | 946.2
323.09 K, 9998 kPa, x2 = 0.4461 | 946.6
323.09 K, 11005 kPa, x2 = 0.4461 | 947.83
323.09 K, 11020 kPa, x2 = 0.4268 | 947.43
323.09 K, 12000 kPa, x2 = 0.4268 | 948.52
323.09 K, 12017 kPa, x2 = 0.9311 | 797.65
323.09 K, 12039 kPa, x2 = 0.4461 | 949.09
323.09 K, 13002 kPa, x2 = 0.4461 | 950.23
323.09 K, 13010 kPa, x2 = 0.9311 | 810.33
323.09 K, 13035 kPa, x2 = 0.4268 | 949.74
323.09 K, 14007 kPa, x2 = 0.4268 | 950.83
323.09 K, 14007 kPa, x2 = 0.4461 | 951.42
323.09 K, 14016 kPa, x2 = 0.9311 | 821.48
323.09 K, 14996 kPa, x2 = 0.4461 | 952.54
323.09 K, 15005 kPa, x2 = 0.9311 | 831.25
323.09 K, 15007 kPa, x2 = 0.4268 | 951.95
323.09 K, 15987 kPa, x2 = 0.4268 | 952.99
323.09 K, 16001 kPa, x2 = 0.4461 | 953.67
323.09 K, 16036 kPa, x2 = 0.9311 | 840.41
323.09 K, 16984 kPa, x2 = 0.4268 | 954.11
323.09 K, 17004 kPa, x2 = 0.4461 | 954.83
323.09 K, 17025 kPa, x2 = 0.9311 | 848.46
323.09 K, 17998 kPa, x2 = 0.4268 | 955.17
323.09 K, 18000 kPa, x2 = 0.4461 | 955.98
323.09 K, 18021 kPa, x2 = 0.9311 | 855.96
323.09 K, 18994 kPa, x2 = 0.4461 | 957.05
323.09 K, 19034 kPa, x2 = 0.9311 | 863.06
323.09 K, 19040 kPa, x2 = 0.4268 | 956.31
323.09 K, 20010 kPa, x2 = 0.9311 | 869.5
323.09 K, 20031 kPa, x2 = 0.4461 | 958.19
323.09 K, 20050 kPa, x2 = 0.4268 | 957.38
323.09 K, 21020 kPa, x2 = 0.4461 | 959.24
323.09 K, 21029 kPa, x2 = 0.9311 | 875.82
323.09 K, 21048 kPa, x2 = 0.4268 | 958.44
323.09 K, 22009 kPa, x2 = 0.9311 | 881.6
323.09 K, 22029 kPa, x2 = 0.4461 | 960.34
323.09 K, 22041 kPa, x2 = 0.4268 | 959.46
323.09 K, 23008 kPa, x2 = 0.4461 | 961.38
323.09 K, 23037 kPa, x2 = 0.4268 | 960.49
323.09 K, 23050 kPa, x2 = 0.9311 | 887.36
323.09 K, 23995 kPa, x2 = 0.9311 | 892.39
323.09 K, 24019 kPa, x2 = 0.4461 | 962.44
323.09 K, 24061 kPa, x2 = 0.4268 | 961.52
323.09 K, 25007 kPa, x2 = 0.4461 | 963.48
323.09 K, 25036 kPa, x2 = 0.4268 | 962.52
323.09 K, 25056 kPa, x2 = 0.9311 | 897.78
323.1 K, 7005 kPa, x2 = 0.4502 | 942.87
323.1 K, 7058 kPa, x2 = 0.4068 | 942.59
323.1 K, 8007 kPa, x2 = 0.4068 | 943.65
323.1 K, 8009 kPa, x2 = 0.4502 | 944.1
323.1 K, 9003 kPa, x2 = 0.4502 | 945.32
323.1 K, 9034 kPa, x2 = 0.4068 | 944.82
323.1 K, 10001 kPa, x2 = 0.4068 | 945.91
323.1 K, 10005 kPa, x2 = 0.4502 | 946.57
323.1 K, 11002 kPa, x2 = 0.4502 | 947.78
323.1 K, 11013 kPa, x2 = 0.4068 | 947.04
323.1 K, 12000 kPa, x2 = 0.4068 | 948.11
